Measured values taken from US20110034335A1, “Treatment of Ornamental Plants” (priority 2009, published 2011).

Legend:
Type in all cases: in vivo
Cyclamen plants = assay: Spray with 1-MCP solutions, ethylene challenge (Example 1); conditions: Day 7; for Appearance: 1 = poor, 5 = excellent
Experimental: (§1) Spray applications were made using (unless otherwise noted) AFxRD-038 powder containing 3.8% active ingredient, i.e. 1-MCP, and also containing dextrose, alpha-cyclodextrin, and amino acid salt. Rates listed are for active ingredient e.g. 5 mg active ingredient per liter. Sprayed liquid contained (unless otherwise noted) AFxRD-038 powder added to water. AFxRD-038 powder was obtained from AgroFresh Inc. The water used (unless otherwise noted) was tap water. Applications were done in 500 ml spray bottles at rates typical for growth regulators applications in the ornamental industry i.e., 200 ml per square meter. Spraying was done within 5-15 minutes of mixing the formulation. Plants were allowed to dry for 1-4 hours before being challenged with ethylene (2 ppm for about 16 hours at ambient temperatures).
(§2) Visual appearance and flower or bud abscission of Impatiens (unknown cultivar in pots with diameter of 10 cm (4 inch)) and Cyclamen plants (unknown cultivar in pots of diameter 11.5 cm (4.5 inch)) sprayed with 1-MCP solutions and challenged with ethylene.

Impatiens = assay: as above; conditions: 0 = poor, 5 = excellent
Experimental: as §1, §2

Regal Geranium ‘Camelot’ = assay: Spray with 1-MCP solutions with or without surfactant, ethylene challenge (Example 4)
Experimental: as §1
(§3) Surfactant Silwet™ L-77 (called “surf” below) was sometimes included to evaluate the effect of surfactant on efficacy. Silwet™ L-77 was used in the form of a pure liquid. The amounts shown below as “ml/L” refer to milliliters of pure Silwet™ L-77 per liter of liquid CP composition.
(§4) Flower loss (%) on Regal Geranium cultivars, ‘Camelot’ and ‘Jewel’ (in pots), sprayed with 1-MCP solutions with or without surfactant (Silwet™ L-77) and challenged with ethylene.

Regal Geranium ‘Jewel’ = assay: as above
Experimental: as §1, §3, §4

‘Magenta’ Impatiens = assay: Spray with 1-MCP solutions with Silwet L-77, ethylene challenge (Example 5); conditions: for Wilt and/or Abscission (%): surf. 0.25 ml/L
Experimental: as §1, §3

[1] = system: racks of flowering plants; assay: Racks of flowering plants, overall comparison sprayed vs control (Example 8); conditions: 25 mg/L; every variety
Experimental: as §1
Racks of flowers were sprayed with spray liquid containing 25 mg/L at rate of 200 ml/square meter. Racks were then placed into a full enclosed truck (length 7.3 meter) for 14 hours. Plants were then challenged with ethylene and evaluated 3 and 7 days later, using a rating scale from 0 (poor) to 2 (good). […] Results were as follows:
In no case was the sprayed plant worse to a statistically significant degree than the corresponding control plant. In most cases the sprayed plant was better than the corresponding control plant.

Datura (tropical) = assay: Nursery plants sprayed, boxed and shipped, quality rating (Example 10); conditions: 50 mg/L of 1-MCP; after 5 days shipping; 0 (poor) to 2 (good)
Experimental: (§5) A range of nursery plants that often show quality problems during shipping were chosen including Datura (tropical), Mini-rose, Delphinium (sun perennial), Verbena (sun perennial), Asclepias (sun perennial), Delosperma (groundcover), Myosotis (shade perennial) and Primula (shade perennial).
(§6) Spray liquid had 50 mg/L of 1-MCP. Sprayed and unsprayed control plants, all of which were blooming, were packed in boxes according to standard procedures and shipped under commercial conditions. After 5 days plants were unpacked and given a quality rating, from 0 (poor) to 2 (good).

Myosotis = assay: as above; conditions: 50 mg/L of 1-MCP; after 5 days shipping; 0 (poor) to 2 (good)
Experimental: as §5, §6

Delosperma = assay: as above; conditions: 50 mg/L of 1-MCP; after 5 days shipping; 0 (poor) to 2 (good)
Experimental: as §5, §6

Verbena = assay: as above; conditions: 50 mg/L of 1-MCP; after 5 days shipping; 0 (poor) to 2 (good)
Experimental: as §5, §6

Delphinium = assay: as above; conditions: 50 mg/L of 1-MCP; after 5 days shipping; 0 (poor) to 2 (good)
Experimental: as §5, §6

Asclepias = assay: as above; conditions: 50 mg/L of 1-MCP; after 5 days shipping; 0 (poor) to 2 (good)
Experimental: as §5, §6

Primula = assay: as above; conditions: 50 mg/L of 1-MCP; after 5 days shipping; 0 (poor) to 2 (good)
Experimental: as §5, §6

Mini-rose = assay: as above; conditions: 50 mg/L of 1-MCP; after 5 days shipping; 0 (poor) to 2 (good)
Experimental: as §5, §6

[2] = 1-MCP 5 mg/L, surf. 0 ml/L, Day 1 (Day 1/Day 2 column pair)
[3] = 1-MCP 5 mg/L, surf. 0 ml/L, Day 1 (Day 1/Day 7 column pair)
[4] = 1-MCP 5 mg/L, surf. 0 ml/L, Day 2
[5] = 1-MCP 5 mg/L, surf. 0 ml/L, Day 7
[6] = 1-MCP 5 mg/L, surf. 2 ml/L, Day 1, phytotoxicity was observed
[7] = 1-MCP 5 mg/L, surf. 2 ml/L, Day 2, phytotoxicity was observed
[8] = 1-MCP 10 mg/L, surf. 0 ml/L, Day 1
[9] = 1-MCP 10 mg/L, surf. 0 ml/L, Day 7
[10] = 1-MCP 25 mg/L, surf. 0 ml/L, Day 1
[11] = 1-MCP 25 mg/L, surf. 0 ml/L, Day 7
[12] = 1-MCP 50 mg/L, surf. 0 ml/L, Day 1 (Day 1/Day 2 column pair), phytotoxicity was observed
[13] = 1-MCP 50 mg/L, surf. 0 ml/L, Day 1 (Day 1/Day 7 column pair), phytotoxicity was observed
[14] = 1-MCP 50 mg/L, surf. 0 ml/L, Day 2, phytotoxicity was observed
[15] = 1-MCP 50 mg/L, surf. 0 ml/L, Day 7, phytotoxicity was observed
[16] = 1-MCP 50 mg/L, surf. 2 ml/L, Day 1, phytotoxicity was observed
[17] = 1-MCP 50 mg/L, surf. 2 ml/L, Day 2, phytotoxicity was observed

Compound: CC1=CC1 [1-MCP, 1-methylcyclopropene]
- Abscission (%) (Cyclamen plants; 1-MCP 10 mg/L): 25.6%
- Appearance (Cyclamen plants; 1-MCP 10 mg/L): 3.7
- Abscission (%) (Cyclamen plants; 1-MCP 15 mg/L): 23.3%
- Appearance (Cyclamen plants; 1-MCP 15 mg/L): 3.7
- Abscission (%) (Cyclamen plants; 1-MCP 25 mg/L): 25.0%
- Appearance (Cyclamen plants; 1-MCP 25 mg/L): 3.7
- Appearance (Impatiens; 1-MCP 10 mg/L, Day 1): 3.7
- Appearance (Impatiens; 1-MCP 10 mg/L, Day 4): 3.3
- Appearance (Impatiens; 1-MCP 100 mg/L, Day 1): 4.3
- Appearance (Impatiens; 1-MCP 100 mg/L, Day 4): 3.7
- Appearance (Impatiens; 1-MCP 300 mg/L, Day 1): 2.3
- Appearance (Impatiens; 1-MCP 300 mg/L, Day 4): 1.3
- Flower Loss (%) (Regal Geranium ‘Camelot’; [2]): 45 ^ %
- Flower Loss (%) (Regal Geranium ‘Camelot’; [3]): 62%
- Flower Loss (%) (Regal Geranium ‘Camelot’; [4]): 64^ %
- Flower Loss (%) (Regal Geranium ‘Camelot’; [5]): 46%
- Flower Loss (%) (Regal Geranium ‘Camelot’; [6]): 5^(3) %
- Flower Loss (%) (Regal Geranium ‘Camelot’; [7]): 24^(3) %
- Flower Loss (%) (Regal Geranium ‘Camelot’; [8]): 20%
- Flower Loss (%) (Regal Geranium ‘Camelot’; [9]): 0%
- Flower Loss (%) (Regal Geranium ‘Camelot’; [10]): 28%
- Flower Loss (%) (Regal Geranium ‘Camelot’; [11]): 27%
- Flower Loss (%) (Regal Geranium ‘Camelot’; [12]): 0^(3) %
- Flower Loss (%) (Regal Geranium ‘Camelot’; [13]): 0^(3) %
- Flower Loss (%) (Regal Geranium ‘Camelot’; [14]): 0^(3) %
- Flower Loss (%) (Regal Geranium ‘Camelot’; [15]): 48^(3) %
- Flower Loss (%) (Regal Geranium ‘Camelot’; [16]): 5^(3) %
- Flower Loss (%) (Regal Geranium ‘Camelot’; [17]): 44^(3) %
- Flower Loss (%) (Regal Geranium ‘Jewel’; [2]): 84^ %
- Flower Loss (%) (Regal Geranium ‘Jewel’; [3]): 90%
- Flower Loss (%) (Regal Geranium ‘Jewel’; [4]): 100 ^ %
- Flower Loss (%) (Regal Geranium ‘Jewel’; [5]): 76%
- Flower Loss (%) (Regal Geranium ‘Jewel’; [6]): 65^(3) %
- Flower Loss (%) (Regal Geranium ‘Jewel’; [7]): 100^(3) %
- Flower Loss (%) (Regal Geranium ‘Jewel’; [8]): 85%
- Flower Loss (%) (Regal Geranium ‘Jewel’; [9]): 68%
- Flower Loss (%) (Regal Geranium ‘Jewel’; [10]): 52%
- Flower Loss (%) (Regal Geranium ‘Jewel’; [11]): 43%
- Flower Loss (%) (Regal Geranium ‘Jewel’; [12]): 28^(3) %
- Flower Loss (%) (Regal Geranium ‘Jewel’; [13]): 26^(3) %
- Flower Loss (%) (Regal Geranium ‘Jewel’; [14]): 82^(3) %
- Flower Loss (%) (Regal Geranium ‘Jewel’; [15]): 65^(3) %
- Flower Loss (%) (Regal Geranium ‘Jewel’; [16]): 35^(3) %
- Flower Loss (%) (Regal Geranium ‘Jewel’; [17]): 81^(3) %
- Wilt and/or Abscission (%) (‘Magenta’ Impatiens; 1-MCP 5 mg/L): 3%
- Wilt and/or Abscission (%) (‘Magenta’ Impatiens; 1-MCP 10 mg/L): 2%
- Wilt and/or Abscission (%) (‘Magenta’ Impatiens; 1-MCP 25 mg/L): 5%
- Wilt and/or Abscission (%) (‘Magenta’ Impatiens; 1-MCP 50 mg/L): 0%
- phytotoxicity (‘Magenta’ Impatiens; even at the highest rates with Silwet L-77): No phytotoxicity was observed
- sprayed plant compared with control plant [1]: better than the control plant at day 3 or at day 7 or at both
- Quality Rating, Sprayed (Datura (tropical)): 2.0
- Quality Rating, Sprayed (Myosotis): 0.5
- Quality Rating, Sprayed (Delosperma): 1.3
- Quality Rating, Sprayed (Verbena): 0.5
- Quality Rating, Sprayed (Delphinium): 1.0
- Quality Rating, Sprayed (Asclepias): 1.5
- Quality Rating, Sprayed (Primula): 1.0
- Quality Rating, Sprayed (Mini-rose): 1.8
